Test results from patent publication US20200093807A1, “NEW USE OF RIFAMYCIN-NITROIMIDAZOLE CONJUGATE MOLECULE” (TenNor Therapeutics Limited, priority 2017, published 2020).
Like-named read-outs stand apart in the source and are kept apart here.

How the values were obtained:
[1] = test system: Bacteroides thetaiotaomicron (MET^R) MMX 3409; assay: microbe, parasite or virus in culture; type: cell-based; conditions: Bacteroides thetaiotaomicron
[2] = test system: Mobiluncus (curtisii subsp. curtisii) ATCC 35241; assay: MIC, anaerobic agar dilution (CLSI); type: cell-based; conditions: ATCC35241, 35° C., 42-48 hours
[3] = test system: Peptostreptococcus (magnus) ATCC 14956; assay: MIC, anaerobic agar dilution (CLSI); type: cell-based; conditions: Finegoldia magna, ATCC14956, 35° C., 42-48 hours
[4] = test system: Treponema denticola ATCC 35405; assay: MIC, anaerobic agar dilution (CLSI); type: cell-based; conditions: ATCC35405, 35° C., 42-48 hours
[5] = test system: Prevotella intermedia ATCC 25611; assay: MIC, anaerobic agar dilution (CLSI); type: cell-based; conditions: ATCC25611, 35° C., 42-48 hours
[6] = test system: Peptostreptococcus anaerobius ATCC 27337; assay: MIC, anaerobic agar dilution (CLSI); type: cell-based; conditions: ATCC27337, 35° C., 42-48 hours
[7] = test system: Bacteroides vulgatus MMX 8348; assay: MIC, anaerobic agar dilution (CLSI); type: cell-based; conditions: Phocaeicola vulgatus, MMX8348, 35° C., 42-48 hours
[8] = test system: Bacteroides fragilis (QC) ATCC 25285; conditions: range printed in parentheses; cited from earlier work
[9] = test system: Peptoniphilus asaccharolyticus ATCC 29743; assay: MIC, anaerobic agar dilution (CLSI); type: cell-based; conditions: ATCC29743, 35° C., 42-48 hours
[10] = test system: Bacteroides vulgatus (MET^R) MMX 3490; assay: MIC, anaerobic agar dilution (CLSI); type: cell-based; conditions: Phocaeicola vulgatus
[11] = test system: Eubacterium (rectale) ATCC 33656; assay: MIC, anaerobic agar dilution (CLSI); type: cell-based; conditions: Agathobacter rectalis, ATCC33656, 35° C., 42-48 hours
Bacterial Vaginosis (BV) = conditions: within 3 months; cited from earlier work
[12] = test system: Prevotella bivia (MET^R) MMX 3454; assay: MIC, anaerobic agar dilution (CLSI); type: cell-based; conditions: 35° C., 42-48 hours
[13] = test system: Veionella parvula ATCC 17745; assay: MIC, anaerobic agar dilution (CLSI); type: cell-based; conditions: 35° C., 42-48 hours
[14] = test system: Prevotella bivia MMX 3450; assay: MIC, anaerobic agar dilution (CLSI); type: cell-based; conditions: MMX3450, 35° C., 42-48 hours
[15] = test system: Prevotella disiens MMX 3457; assay: MIC, anaerobic agar dilution (CLSI); type: cell-based; conditions: MMX3457, 35° C., 42-48 hours
[16] = test system: Lactobacillus jensenii ATCC 25258; assay: MIC, anaerobic agar dilution (CLSI); type: cell-based; conditions: ATCC25258
[17] = test system: Anaerococcus (Anaerococcus(prevotii)) ATCC 9321; assay: MIC, anaerobic agar dilution (CLSI); type: cell-based; conditions: 35° C., 42-48 hours
[18] = test system: Clostridium perfringens (MET^R) MMX 3521; assay: microbe, parasite or virus in culture; type: cell-based
[19] = test system: Fusobacterium nucleatum ATCC 10953; assay: MIC, anaerobic agar dilution (CLSI); type: cell-based; conditions: ATCC10953, 35° C., 42-48 hours
[20] = test system: Bacteroides gracilis ATCC 33236; assay: MIC, anaerobic agar dilution (CLSI); type: cell-based; conditions: Campylobacter gracilis, ATCC33236
[21] = test system: Clostridium sporogenes ATCC 19404; assay: MIC, anaerobic agar dilution (CLSI); type: cell-based; conditions: ATCC19404, 35° C., 42-48 hours
[22] = test system: Gardnerella vaginalis ATCC 14018; assay: MIC, anaerobic agar dilution (CLSI); type: cell-based; conditions: ATCC14018, 35° C., 42-48 hours
Atopobium vaginae BAA-55 = assay: MIC, anaerobic agar dilution (CLSI); type: cell-based; conditions: Fannyhessea vaginae, BAA55
[23] = test system: Bacteroides fragilis (QC) ATCC 25285; assay: MIC, anaerobic agar dilution (CLSI); type: cell-based; conditions: ATCC25285, 35° C., 42-48 hours
[24] = test system: Mobiluncus (mulieris) ATCC 35243; assay: MIC, anaerobic agar dilution (CLSI); type: cell-based; conditions: ATCC35243, 35° C., 42-48 hours
[25] = test system: Lactobacillus crispatus ATCC 33820; assay: MIC, anaerobic agar dilution (CLSI); type: cell-based; conditions: ATCC33820
[26] = test system: Bifidobacterium (breve) ATCC 15698; assay: MIC, anaerobic agar dilution (CLSI); type: cell-based; conditions: ATCC15698, 35° C., 42-48 hours
[27] = test system: Prevotella asaccharolytica (MET^R) MMX 3552; assay: MIC, anaerobic agar dilution (CLSI); type: cell-based; conditions: 35° C., 42-48 hours
[28] = test system: Gardnerella vaginalis ATCC 49145; assay: MIC, anaerobic agar dilution (CLSI); type: cell-based; conditions: ATCC49145, 35° C., 42-48 hours
[29] = test system: Peptococcus (niger) ATCC 27731; assay: MIC, anaerobic agar dilution (CLSI); type: cell-based; conditions: ATCC27731, 35° C., 42-48 hours
[30] = test system: Bacteroides ovatus (MET^R) MMX 3504; assay: MIC, anaerobic agar dilution (CLSI); type: cell-based; conditions: 35° C., 42-48 hours
[31] = test system: Actinomyces naeslundii ATCC 12104; assay: MIC, anaerobic agar dilution (CLSI); type: cell-based; conditions: ATCC12104, 35° C., 42-48 hours
[32] = test system: Bacteroides fragilis (MET^R) MMX 3387; assay: MIC, anaerobic agar dilution (CLSI); type: cell-based
[33] = test system: Bifidobacterium longum ATCC 15707; assay: MIC, anaerobic agar dilution (CLSI); type: cell-based; conditions: ATCC15707, 35° C., 42-48 hours
Gardnerella = assay: MIC, agar dilution, Gardnerella; type: cell-based; conditions: Gardnerella as major BV bacteria
[34] = test system: Lactobacillus gasseri ATCC 33323; assay: MIC, anaerobic agar dilution (CLSI); type: cell-based; conditions: ATCC33323
[35] = test system: Bacteroides uniformis MMX 1277; assay: MIC, anaerobic agar dilution (CLSI); type: cell-based; conditions: MMX1277
[36] = test system: Prevotella bivia ATCC 29303; assay: MIC, anaerobic agar dilution (CLSI); type: cell-based; conditions: ATCC29303, 35° C., 42-48 hours
[37] = test system: Prevotella disiens MMX 3446; assay: MIC, anaerobic agar dilution (CLSI); type: cell-based; conditions: MMX3446, 35° C., 42-48 hours
[38] = test system: Fusobacterium nucleatum ATCC 25586; assay: MIC, anaerobic agar dilution (CLSI); type: cell-based; conditions: ATCC25586, 35° C., 42-48 hours

Cc1ncc([N+](=O)[O-])n1CCO [Metronidazole]
> 256 µg/mL: MIC ([16]; Lactobacillus jensenii) | MIC [18] | MIC [20] | MIC ([25]; Lactobacillus crispatus) | MIC ([32]; Bacteroides fragilis) | MIC ([34]; Lactobacillus gasseri) | MIC ([35]; Bacteroides uniformis)
1 µg/mL: MIC [3] | MIC [5] | MIC [7] | MIC [14] | MIC [23] | MIC [27] | MIC [36]
2 µg/mL: MIC [1] | MIC [2] | MIC [13] | MIC [17] | MIC [30] | MIC [38]
0.25 to 1 µg/mL: MIC range in parentheses (QC strain reference range) [8]
256 µg/mL: MIC [31]
4 µg/mL: MIC [22] | MIC [28] | MIC (Gardnerella)
128 µg/mL: MIC [10] | MIC (Atopobium vaginae BAA-55)
8 µg/mL: MIC [26] | MIC [33]
0.06 µg/mL: MIC [19] | MIC [21]
up to 58%: recurrence rate (Bacterial Vaginosis (BV))
0.25 µg/mL: MIC [6]
0.5 µg/mL: MIC [4] | MIC [9] | MIC [11] | MIC [12] | MIC [15] | MIC [24] | MIC [29] | MIC [37]

CO[C@H]1/C=C/O[C@@]2(C)Oc3c(C)c(O)c4c(O)c(c(/C=N/N5CCN(C)CC5)c(O)c4c3C2=O)NC(=O)/C(C)=C\C=C\[C@H](C)[C@H](O)[C@@H](C)[C@@H](O)[C@@H](C)[C@H](OC(C)=O)[C@@H]1C [Rifampicin]
0.015 µg/mL: MIC [11]
1 µg/mL: MIC [3] | MIC [18] | MIC [19] | MIC [21] | MIC [30]
0.25 µg/mL: MIC [7] | MIC ([10]; Bacteroides vulgatus (MET^R) MMX 3490, anaerobic, 35° C., 42-48 hours, read-out: MIC) | MIC (Atopobium vaginae BAA-55; Atopobium vaginae BAA-55, anaerobic, 35° C., 42-48 hours, read-out: MIC) | MIC [23] | MIC [26] | MIC ([32]; Bacteroides fragilis (MET^R) MMX 3387, anaerobic, 35° C., 42-48 hours, read-out: MIC) | MIC ([34]; Lactobacillus gasseri ATCC 33323, anaerobic, 35° C., 42-48 hours, read-out: MIC)
2 µg/mL: MIC ([25]; Lactobacillus crispatus ATCC 33820, anaerobic, 35° C., 42-48 hours, read-out: MIC)
4 µg/mL: MIC [13]
0.5 µg/mL: MIC [1] | MIC [15] | MIC ([16]; Lactobacillus jensenii ATCC 25258, anaerobic, 35° C., 42-48 hours, read-out: MIC) | MIC [22] | MIC [28] | MIC [33] | MIC (Gardnerella) | MIC ([35]; Bacteroides uniformis MMX 1277, anaerobic, 35° C., 42-48 hours, read-out: MIC) | MIC [36] | MIC [38]
0.06 µg/mL: MIC [14]
0.12 µg/mL: MIC [5] | MIC [37]
16 µg/mL: MIC ([20]; Bacteroides gracilis ATCC 33236, anaerobic, 35° C., 42-48 hours, read-out: MIC)
0.004 µg/mL: MIC [2] | MIC [4] | MIC [6] | MIC [9] | MIC [12] | MIC [24] | MIC [27] | MIC [29]
0.03 µg/mL: MIC [17] | MIC [31]
